Laboratory results as given in patent US9492471B2, “Methods of treating a disease or disorder associated with Bruton'S Tyrosine Kinase” (Celgene Avilomics Research, Inc., priority 2013, dated 2016).
Like-named read-outs stand apart in the source and are kept apart here.

Assays:
Test in all cases: HotSpot kinase profiling
Type in all cases: biochemical
[1] = target: T1, TYK1/LTK (Homo sapiens, UniProt P29376)
T1 construct: purchased Reaction Biology Corp
Procedure, shortened: (§1)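 P81 filtration radiometric readout; 2 h incubation at room temperature; 0.1% phosphoric acid wash; DMSO negative control; % inhibition, mean of replicate runs.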

[2] = target: T2, DLK/MAP3K12 (Homo sapiens, UniProt Q12852)
T2 construct: purchased Reaction Biology Corp
T2 sequence (Q12852 1-859): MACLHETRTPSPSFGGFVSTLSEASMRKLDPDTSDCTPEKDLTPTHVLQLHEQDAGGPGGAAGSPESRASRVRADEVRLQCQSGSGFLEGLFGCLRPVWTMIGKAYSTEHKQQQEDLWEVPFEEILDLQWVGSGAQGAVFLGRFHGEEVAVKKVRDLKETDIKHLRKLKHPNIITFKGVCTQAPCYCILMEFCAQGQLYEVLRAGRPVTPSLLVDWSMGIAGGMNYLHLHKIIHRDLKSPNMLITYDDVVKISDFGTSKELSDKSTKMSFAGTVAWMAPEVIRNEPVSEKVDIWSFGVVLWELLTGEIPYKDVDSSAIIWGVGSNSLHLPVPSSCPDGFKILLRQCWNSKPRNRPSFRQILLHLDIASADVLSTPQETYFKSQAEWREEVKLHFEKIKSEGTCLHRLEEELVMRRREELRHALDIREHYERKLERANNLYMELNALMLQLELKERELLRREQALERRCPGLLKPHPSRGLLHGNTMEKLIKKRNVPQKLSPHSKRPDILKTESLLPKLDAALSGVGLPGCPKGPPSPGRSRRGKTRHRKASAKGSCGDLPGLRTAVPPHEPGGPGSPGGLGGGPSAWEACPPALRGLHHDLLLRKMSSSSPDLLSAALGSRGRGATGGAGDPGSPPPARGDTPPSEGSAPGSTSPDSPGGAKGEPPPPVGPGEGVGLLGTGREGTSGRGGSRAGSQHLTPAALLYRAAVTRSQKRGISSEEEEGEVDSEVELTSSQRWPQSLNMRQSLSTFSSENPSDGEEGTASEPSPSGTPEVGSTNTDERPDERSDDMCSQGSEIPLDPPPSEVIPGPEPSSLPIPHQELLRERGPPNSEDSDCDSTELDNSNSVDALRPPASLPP
Procedure, shortened: as §1

[3] = target: T3, TAOK1 (Homo sapiens, UniProt Q7L7X3)
T3 construct: purchased Reaction Biology Corp
T3 sequence (Q7L7X3 1-1001): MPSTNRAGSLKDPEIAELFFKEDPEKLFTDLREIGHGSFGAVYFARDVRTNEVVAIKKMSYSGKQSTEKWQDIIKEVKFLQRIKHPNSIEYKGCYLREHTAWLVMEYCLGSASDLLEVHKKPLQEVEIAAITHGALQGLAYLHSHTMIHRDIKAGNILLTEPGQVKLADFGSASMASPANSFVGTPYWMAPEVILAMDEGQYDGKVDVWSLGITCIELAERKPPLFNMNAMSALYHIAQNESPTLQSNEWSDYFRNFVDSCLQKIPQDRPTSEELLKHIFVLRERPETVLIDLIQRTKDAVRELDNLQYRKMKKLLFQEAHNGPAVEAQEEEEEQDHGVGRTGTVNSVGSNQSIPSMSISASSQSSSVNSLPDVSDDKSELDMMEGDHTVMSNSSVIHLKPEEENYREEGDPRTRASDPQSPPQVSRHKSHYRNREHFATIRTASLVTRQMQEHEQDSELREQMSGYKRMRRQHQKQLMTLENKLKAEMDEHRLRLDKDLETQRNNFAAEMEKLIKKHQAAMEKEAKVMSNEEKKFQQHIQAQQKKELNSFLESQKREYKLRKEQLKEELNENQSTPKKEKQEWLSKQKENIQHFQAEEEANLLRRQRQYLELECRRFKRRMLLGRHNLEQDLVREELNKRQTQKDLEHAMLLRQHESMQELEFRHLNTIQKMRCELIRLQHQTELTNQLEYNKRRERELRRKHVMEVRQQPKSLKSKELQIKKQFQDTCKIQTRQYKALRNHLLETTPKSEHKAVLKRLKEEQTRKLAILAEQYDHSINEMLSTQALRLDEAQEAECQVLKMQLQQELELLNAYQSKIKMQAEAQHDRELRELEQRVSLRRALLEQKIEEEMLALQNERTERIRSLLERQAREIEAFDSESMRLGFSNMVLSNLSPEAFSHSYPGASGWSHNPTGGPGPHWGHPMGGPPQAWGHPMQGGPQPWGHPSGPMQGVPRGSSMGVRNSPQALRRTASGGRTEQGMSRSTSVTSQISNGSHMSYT
Procedure, shortened: as §1

[4] = target: T4, LYN B (Homo sapiens, UniProt P07948)
T4 construct: purchased Reaction Biology Corp
T4 sequence (P07948 1-491 isoform P07948-2): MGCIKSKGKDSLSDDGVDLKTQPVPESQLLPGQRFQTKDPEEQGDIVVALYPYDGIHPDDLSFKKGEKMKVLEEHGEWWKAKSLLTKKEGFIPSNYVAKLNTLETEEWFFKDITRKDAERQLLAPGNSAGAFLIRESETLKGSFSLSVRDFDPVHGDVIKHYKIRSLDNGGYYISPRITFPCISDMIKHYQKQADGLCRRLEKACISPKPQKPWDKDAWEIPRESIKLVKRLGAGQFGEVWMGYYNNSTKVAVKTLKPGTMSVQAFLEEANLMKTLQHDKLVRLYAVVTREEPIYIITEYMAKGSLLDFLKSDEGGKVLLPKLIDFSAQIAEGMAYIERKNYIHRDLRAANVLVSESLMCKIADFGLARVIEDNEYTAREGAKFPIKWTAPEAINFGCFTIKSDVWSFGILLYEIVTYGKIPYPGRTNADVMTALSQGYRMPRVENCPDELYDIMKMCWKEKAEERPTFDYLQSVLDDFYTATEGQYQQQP
Procedure, shortened: as §1

[5] = target: T5, CAMK2d (Homo sapiens, UniProt Q13557)
T5 construct: purchased Reaction Biology Corp
T5 sequence (Q13557 whole entry): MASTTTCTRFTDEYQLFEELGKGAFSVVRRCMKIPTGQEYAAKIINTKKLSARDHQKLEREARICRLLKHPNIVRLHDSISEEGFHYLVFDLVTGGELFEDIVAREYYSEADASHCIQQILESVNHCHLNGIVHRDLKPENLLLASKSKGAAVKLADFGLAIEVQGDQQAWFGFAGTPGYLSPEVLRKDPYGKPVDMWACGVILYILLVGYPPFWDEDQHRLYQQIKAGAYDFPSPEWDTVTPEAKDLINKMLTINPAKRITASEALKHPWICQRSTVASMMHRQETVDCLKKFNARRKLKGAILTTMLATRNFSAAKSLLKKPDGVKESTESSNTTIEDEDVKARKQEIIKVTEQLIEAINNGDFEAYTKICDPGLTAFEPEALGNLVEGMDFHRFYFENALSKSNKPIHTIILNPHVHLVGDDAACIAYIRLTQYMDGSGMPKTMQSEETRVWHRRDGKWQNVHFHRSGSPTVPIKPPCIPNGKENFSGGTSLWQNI
Procedure, shortened: as §1

[6] = target: T6, c-MET (Homo sapiens, UniProt P08581)
T6 construct: purchased Reaction Biology Corp
T6 sequence (P08581 25-1390): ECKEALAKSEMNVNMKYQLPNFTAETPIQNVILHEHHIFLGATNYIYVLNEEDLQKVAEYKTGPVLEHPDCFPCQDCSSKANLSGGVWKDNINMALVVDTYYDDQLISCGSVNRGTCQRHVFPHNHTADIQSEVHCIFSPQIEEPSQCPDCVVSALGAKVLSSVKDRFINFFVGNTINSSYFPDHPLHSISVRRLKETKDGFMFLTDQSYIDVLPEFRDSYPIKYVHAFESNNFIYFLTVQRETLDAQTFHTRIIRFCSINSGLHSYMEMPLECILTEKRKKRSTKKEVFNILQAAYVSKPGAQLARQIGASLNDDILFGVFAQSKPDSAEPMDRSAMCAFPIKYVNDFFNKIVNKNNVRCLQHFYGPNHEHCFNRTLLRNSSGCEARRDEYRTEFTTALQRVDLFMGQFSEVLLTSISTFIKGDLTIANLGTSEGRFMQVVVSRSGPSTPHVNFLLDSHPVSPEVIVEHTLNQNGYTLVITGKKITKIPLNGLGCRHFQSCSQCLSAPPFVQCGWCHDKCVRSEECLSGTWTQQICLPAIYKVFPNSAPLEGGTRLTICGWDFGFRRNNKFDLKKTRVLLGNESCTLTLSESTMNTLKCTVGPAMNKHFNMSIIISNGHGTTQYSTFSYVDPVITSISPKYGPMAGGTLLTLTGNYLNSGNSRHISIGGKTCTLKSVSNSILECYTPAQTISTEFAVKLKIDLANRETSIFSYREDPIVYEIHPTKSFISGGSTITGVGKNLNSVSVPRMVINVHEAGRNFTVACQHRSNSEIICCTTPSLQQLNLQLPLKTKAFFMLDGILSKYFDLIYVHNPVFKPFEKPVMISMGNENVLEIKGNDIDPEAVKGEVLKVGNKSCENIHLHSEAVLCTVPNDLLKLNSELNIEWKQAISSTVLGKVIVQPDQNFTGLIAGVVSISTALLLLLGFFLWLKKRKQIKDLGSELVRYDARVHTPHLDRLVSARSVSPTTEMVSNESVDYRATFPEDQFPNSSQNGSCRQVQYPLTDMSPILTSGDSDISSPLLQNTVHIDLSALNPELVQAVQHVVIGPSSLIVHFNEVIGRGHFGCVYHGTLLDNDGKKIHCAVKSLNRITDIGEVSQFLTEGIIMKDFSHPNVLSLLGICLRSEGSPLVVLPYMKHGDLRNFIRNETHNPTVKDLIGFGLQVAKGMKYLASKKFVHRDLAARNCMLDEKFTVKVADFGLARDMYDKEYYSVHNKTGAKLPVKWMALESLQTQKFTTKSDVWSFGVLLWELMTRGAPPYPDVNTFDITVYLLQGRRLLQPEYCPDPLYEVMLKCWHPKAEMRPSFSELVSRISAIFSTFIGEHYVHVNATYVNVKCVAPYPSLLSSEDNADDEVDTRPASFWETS
Procedure, shortened: as §1

[7] = target: T7, DAPK1 (Homo sapiens, UniProt P53355)
T7 construct: purchased Reaction Biology Corp
T7 sequence (P53355 whole entry): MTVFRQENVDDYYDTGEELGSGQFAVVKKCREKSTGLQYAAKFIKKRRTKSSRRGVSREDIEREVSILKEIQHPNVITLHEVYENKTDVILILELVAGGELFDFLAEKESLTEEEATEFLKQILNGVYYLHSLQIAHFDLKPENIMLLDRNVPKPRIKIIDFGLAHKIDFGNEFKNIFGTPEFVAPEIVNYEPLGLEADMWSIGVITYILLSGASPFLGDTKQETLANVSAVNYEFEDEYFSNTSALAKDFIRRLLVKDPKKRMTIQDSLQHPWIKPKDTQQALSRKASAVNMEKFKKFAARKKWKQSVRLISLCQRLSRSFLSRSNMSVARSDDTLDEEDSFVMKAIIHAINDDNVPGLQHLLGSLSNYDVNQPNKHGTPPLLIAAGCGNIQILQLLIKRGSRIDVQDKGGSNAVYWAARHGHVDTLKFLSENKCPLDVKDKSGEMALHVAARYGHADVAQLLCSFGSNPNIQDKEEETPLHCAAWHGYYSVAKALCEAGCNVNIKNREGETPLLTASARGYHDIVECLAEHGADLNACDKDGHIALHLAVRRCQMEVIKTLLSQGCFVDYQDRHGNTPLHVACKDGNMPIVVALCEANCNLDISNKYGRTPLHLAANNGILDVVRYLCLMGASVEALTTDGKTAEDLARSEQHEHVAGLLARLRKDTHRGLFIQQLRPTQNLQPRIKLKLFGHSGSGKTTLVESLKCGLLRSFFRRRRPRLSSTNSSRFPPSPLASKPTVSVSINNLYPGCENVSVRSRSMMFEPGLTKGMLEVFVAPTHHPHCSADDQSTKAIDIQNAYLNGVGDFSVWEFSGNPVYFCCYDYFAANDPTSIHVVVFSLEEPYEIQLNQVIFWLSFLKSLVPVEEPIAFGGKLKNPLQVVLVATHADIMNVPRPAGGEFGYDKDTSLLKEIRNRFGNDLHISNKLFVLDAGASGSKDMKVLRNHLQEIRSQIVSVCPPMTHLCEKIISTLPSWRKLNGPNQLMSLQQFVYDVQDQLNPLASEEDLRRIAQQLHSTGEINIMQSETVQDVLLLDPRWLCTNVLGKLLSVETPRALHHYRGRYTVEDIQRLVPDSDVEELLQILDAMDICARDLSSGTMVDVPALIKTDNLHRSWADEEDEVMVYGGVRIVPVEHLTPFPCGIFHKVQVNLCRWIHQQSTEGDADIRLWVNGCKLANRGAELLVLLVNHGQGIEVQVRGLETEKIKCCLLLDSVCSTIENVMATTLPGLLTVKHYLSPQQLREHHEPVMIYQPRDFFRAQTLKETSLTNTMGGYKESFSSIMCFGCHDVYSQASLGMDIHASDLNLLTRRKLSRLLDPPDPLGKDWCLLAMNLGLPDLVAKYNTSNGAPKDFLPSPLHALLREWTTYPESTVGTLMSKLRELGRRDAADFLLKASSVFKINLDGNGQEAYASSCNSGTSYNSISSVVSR
Procedure, shortened: as §1

[8] = target: T8, RET (Homo sapiens, UniProt P07949)
T8 construct: purchased Reaction Biology Corp
T8 sequence (P07949 29-1114): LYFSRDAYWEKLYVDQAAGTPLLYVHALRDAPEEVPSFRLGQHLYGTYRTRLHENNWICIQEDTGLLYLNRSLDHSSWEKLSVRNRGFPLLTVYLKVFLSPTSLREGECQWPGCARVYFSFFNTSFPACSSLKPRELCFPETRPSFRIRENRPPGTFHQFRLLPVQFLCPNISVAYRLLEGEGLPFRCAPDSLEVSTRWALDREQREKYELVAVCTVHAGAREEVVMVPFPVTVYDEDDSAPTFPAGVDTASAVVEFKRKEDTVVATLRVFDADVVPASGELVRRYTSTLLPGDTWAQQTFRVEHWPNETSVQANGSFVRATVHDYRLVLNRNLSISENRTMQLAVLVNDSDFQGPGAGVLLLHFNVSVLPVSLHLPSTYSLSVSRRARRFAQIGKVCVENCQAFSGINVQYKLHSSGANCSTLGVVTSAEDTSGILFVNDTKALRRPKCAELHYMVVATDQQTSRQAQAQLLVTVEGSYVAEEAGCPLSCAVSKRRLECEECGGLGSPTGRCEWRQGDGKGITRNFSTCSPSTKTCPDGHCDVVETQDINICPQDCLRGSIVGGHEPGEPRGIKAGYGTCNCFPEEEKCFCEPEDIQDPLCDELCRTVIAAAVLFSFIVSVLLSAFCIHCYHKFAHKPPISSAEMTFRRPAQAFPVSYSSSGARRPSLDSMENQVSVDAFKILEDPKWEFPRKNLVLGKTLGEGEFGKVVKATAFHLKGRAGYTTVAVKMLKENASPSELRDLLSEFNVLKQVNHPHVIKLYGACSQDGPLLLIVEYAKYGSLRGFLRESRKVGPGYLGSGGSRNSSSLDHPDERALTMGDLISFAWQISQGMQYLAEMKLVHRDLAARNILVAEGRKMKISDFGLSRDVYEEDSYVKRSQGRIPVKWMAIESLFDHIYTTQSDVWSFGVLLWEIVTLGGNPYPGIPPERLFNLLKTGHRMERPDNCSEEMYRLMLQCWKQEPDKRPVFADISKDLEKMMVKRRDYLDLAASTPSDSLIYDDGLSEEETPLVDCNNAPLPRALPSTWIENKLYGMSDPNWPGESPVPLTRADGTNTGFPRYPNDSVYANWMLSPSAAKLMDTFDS
Procedure, shortened: as §1

[9] = read-out: % Enzyme Activity (relative to DMSO controls) Run 1
[10] = read-out: % Enzyme Activity (relative to DMSO controls) Run 2

C=CC(=O)Nc1cccc(Nc2nc(Nc3ccc(OCCOC)c(F)c3)ncc2F)c1 [Compound 2]
inhibition at 3 µM [1]: 23.2% | remaining activity at 3 µM [1, 9]: 77.8% | remaining activity at 3 µM [1, 10]: 75.8% | inhibition at 3 µM [2]: 22.8% | remaining activity at 3 µM [2, 9]: 74.2% | remaining activity at 3 µM [2, 10]: 80.2% | inhibition at 3 µM [3]: 1.63% | remaining activity at 3 µM [3, 9]: 100% | remaining activity at 3 µM [3, 10]: 96.2% | inhibition at 3 µM [4]: 5.7% | remaining activity at 3 µM [4, 9]: 92.9% | remaining activity at 3 µM [4, 10]: 95.7% | inhibition at 3 µM [5]: -23.3% | remaining activity at 3 µM [5, 9]: 124% | remaining activity at 3 µM [5, 10]: 123% | inhibition at 3 µM [6]: -1.49% | remaining activity at 3 µM [6, 9]: 103% | remaining activity at 3 µM [6, 10]: 100% | inhibition at 3 µM [7]: 1.86% | remaining activity at 3 µM [7, 9]: 103% | remaining activity at 3 µM [7, 10]: 93.5% | inhibition at 3 µM [8]: 86.6% | remaining activity at 3 µM [8, 9]: 13.2% | remaining activity at 3 µM [8, 10]: 13.6%
